Holding throughout (assay): DTP human tumour cell line panel, 48 h
Assay [1] concerns OVCAR-5.
Assay [2] deals with MDA-N.
The subject of assay [3] is UACC-257.
Assay [4] relates to HCC 2998.
The test system of assay [5] is MOLT-4.
For assay [6], the system named is HCT-116.
The test system of assay [7] is SF-539.
The subject of assay [8] is MDA-MB-435.
Assay [9] relates to SK-MEL-2.
The subject of assay [10] is SNB-75.
Assay [11] concerns 786-0.
Assay [12] deals with EKVX.
Assay [13] deals with K562.
The test system of assay [14] is OVCAR-4.
The test system of assay [15] is UO-31.
Assay [16] relates to OVCAR-3.
Assay [17] has as its system SF-295.
Assay [18] relates to UACC-62.
The subject of assay [19] is RXF 393.
Assay [20] has as its system PC-3.

Consider 10 compounds from ChEMBL document CHEMBL1201862, “PubChem BioAssay data set” (2004).

The structures appear in SMILES notation.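 Growth conditions: 96-well plates. Treatment: test compound, 48 hours, 5 concentrations. Analysis: linear interpolation between bracketing concentrations; unreached endpoints set to highest concentration. At the GI50, growth is halved.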 Calls of active or inactive are those of the source. No stated cut-off is given here; in the data, active = GI50 up to about 1.1 µM and inactive = higher.

The GI50 is the concentration that inhibits growth by half. As for `CCOC(=O)/C(=C\c1ccc(C#N)cc1)C(C)=O`, the GI50 in assay [1] was 30.8 µM (inactive); in assay [2] it was 31.1 µM (inactive); in assay [3] it was 18.6 µM (inactive); in assay [4], 5.92 µM (inactive); in [5], 25.5 µM (inactive); in [6], 23.3 µM (inactive). Also, the GI50 was 29 µM (inactive) in [7]; 26.8 µM (inactive) in assay [8]; 15.2 µM (inactive) in assay [9]; 14.6 µM (inactive) in [10]; 18.4 µM (inactive) in assay [11]; 49.7 µM (inactive) in assay [12]. The GI50 is 30.7 µM (inactive) in assay [13]; 23.3 µM (inactive) in assay [14]; 13.8 µM (inactive) in [15]; 36.6 µM (inactive) in [16]; 34.5 µM (inactive) in assay [17]; 2.23 µM (inactive) in assay [18]. In addition, the values for the GI50 in assay [19] and in assay [20] were 15.3 µM (inactive) and 18.5 µM (inactive), respectively.

For the compound `CN(Nc1cc(=O)[nH]c(=O)[nH]1)c1ccccc1`, the GI50 in assay [1], in assay [2], in [3], in assay [4], in assay [5] and in assay [6] was > 100 µM (inactive) each time. The GI50 in [7] is > 100 µM (inactive); in [8], > 100 µM (inactive); in assay [9] it was > 100 µM (inactive); in assay [10], 58.9 µM (inactive); in [11] it was > 100 µM (inactive); in assay [12], > 100 µM (inactive). The GI50 in assay [13], in assay [14], in assay [15], in assay [16], in [17] and in assay [18] was > 100 µM (inactive) in each case. For the same compound, the GI50 in assay [19] and in assay [20] was > 100 µM (inactive) each time.

Turning to `O=C1N/C(=N/N=C\C(O)C(O)C(O)C(O)CO)N/C1=C\c1ccc(Cl)cc1` (stereo not given), the GI50 in assay [1] is 19.5 µM (inactive); in assay [2], 0.968 µM (active); in assay [3], 14.5 µM (inactive); in [4] it was 12.4 µM (inactive); in [5] it was 3.9 µM (inactive); in [6], 9.59 µM (inactive). For the same compound, the GI50 was 0.332 µM (active) in [7]; 7.14 µM (inactive) in assay [8]; 7.06 µM (inactive) in assay [9]; 2.3 µM (inactive) in [10]; 5.9 µM (inactive) in assay [11]; 12.1 µM (inactive) in [12]. Further, the GI50 in assay [13] is 10.6 µM (inactive); in [14], 7.46 µM (inactive); in assay [15] it was 44.1 µM (inactive); in [16] it was 2.18 µM (inactive); in [17], 9.23 µM (inactive); in assay [18], 0.571 µM (active). The figures for the GI50 in assay [19] and in [20] were 7.19 µM (inactive) and 5.52 µM (inactive), respectively.

Regarding `Cc1cc(O)c2c(c1)C(=O)C(c1c(C)cc3c(c1O)C(=O)C1OC1C3=O)=CC2=O` (stereo not given), the GI50 was 5.27 µM (inactive) in assay [1]; 1.27 µM (inactive) in [2]; 4.74 µM (inactive) in [3]; 5.93 µM (inactive) in assay [4]; 0.147 µM (active) in [5]; 1.71 µM (inactive) in [6]. The GI50 in assay [7] is 4.48 µM (inactive); in [8], 2.54 µM (inactive); in assay [9], 10.7 µM (inactive); in [10] it was 12.4 µM (inactive); in [11], 1.64 µM (inactive); in assay [12], 3.15 µM (inactive). Also, the GI50 is 0.339 µM (active) in [13]; 3.33 µM (inactive) in [14]; 1.8 µM (inactive) in assay [15]; 1.83 µM (inactive) in [16]; 16.5 µM (inactive) in [17]; 2.04 µM (inactive) in assay [18]. Also, the GI50 is 1.35 µM (inactive) in assay [19] and 12.5 µM (inactive) in assay [20].

In the case of `C=C1C(=O)OC2/C=C(\CO)C3OC3C3OC3(C)CC(OC(=O)/C(=C/C)COC(C)=O)C12` (stereo not given), the GI50 in assay [1] was 15.3 µM (inactive); in [2], 3.58 µM (inactive); in assay [3], 3.84 µM (inactive); in [4] it was 16.5 µM (inactive); in assay [5], 7.89 µM (inactive); in assay [6] it was 1.55 µM (inactive). Besides, the GI50 was 2.91 µM (inactive) in [7]; 2.59 µM (inactive) in assay [8]; 3.31 µM (inactive) in [9]; 9.68 µM (inactive) in [10]; 2.29 µM (inactive) in assay [11]; 3.81 µM (inactive) in [12]. Besides, the GI50 in assay [13] is 16 µM (inactive); in [14], 8.3 µM (inactive); in assay [15], 10.6 µM (inactive); in [16], 3.52 µM (inactive); in assay [17], 10 µM (inactive); in assay [18], 2.86 µM (inactive). Further, the GI50 was 1.71 µM (inactive) in assay [19] and 14 µM (inactive) in assay [20].

As for `S=c1sc2nc(Cl)nc(Cl)c2s1`, the GI50 in [1] was 15.7 µM (inactive); in [2], 7.98 µM (inactive); in assay [3], 15.3 µM (inactive); in assay [4], 15.3 µM (inactive); in [5], 0.822 µM (active); in [6] it was 11.9 µM (inactive). Further, the GI50 in assay [7] is 20.6 µM (inactive); in assay [8], 7.94 µM (inactive); in assay [9], 11.4 µM (inactive); in assay [10], 17.3 µM (inactive); in assay [11], 6.21 µM (inactive); in [12], 16.9 µM (inactive). The GI50 in [13] was 4.24 µM (inactive); in assay [14] it was 16.6 µM (inactive); in assay [15], 11.1 µM (inactive); in [16], 10.3 µM (inactive); in assay [17], 16.7 µM (inactive); in assay [18], 13 µM (inactive). Moreover, the GI50 in [19] was 12 µM (inactive); in assay [20], 12.4 µM (inactive).

With `Cc1c2ncccc2cc2oc3ccccc3c(=O)c12`, the GI50 is 16.1 µM (inactive) in assay [1]; 63.4 µM (inactive) in [2]; 58.5 µM (inactive) in assay [3]; 60.7 µM (inactive) in assay [4]; 2.94 µM (inactive) in [5]; 31.3 µM (inactive) in assay [6]. Besides, the GI50 is > 100 µM (inactive) in assay [7]; 56.8 µM (inactive) in [8]; > 100 µM (inactive) in [9]; > 100 µM (inactive) in assay [10]; > 100 µM (inactive) in [11]; 11.1 µM (inactive) in [12]. In addition, the GI50 in [13] was 24.9 µM (inactive); in assay [14], 35.8 µM (inactive); in assay [15], 7.06 µM (inactive); in assay [16], 33.9 µM (inactive); in [17], 31.6 µM (inactive); in assay [18], 50 µM (inactive). Also, the GI50 in assay [19] is 61.4 µM (inactive); in assay [20] it was 75.7 µM (inactive).

On to `C#CCSc1cnc2ccccc2c1Sc1c[nH]c2ccccc2c1=O`, for which the GI50 is 32.7 µM (inactive) in assay [1]; 18.1 µM (inactive) in assay [2]; 17.6 µM (inactive) in assay [3]; 17.9 µM (inactive) in assay [4]; 4.53 µM (inactive) in assay [5]; 13.3 µM (inactive) in [6]. Further, the GI50 in assay [7] was 28.6 µM (inactive); in assay [8] it was 23.6 µM (inactive); in assay [9], 19.1 µM (inactive); in assay [10], 15.9 µM (inactive); in [11], 12.4 µM (inactive); in assay [12] it was 19.1 µM (inactive). Besides, the GI50 in assay [13] is 9.35 µM (inactive); in assay [14], 20.9 µM (inactive); in [15], 2.14 µM (inactive); in assay [16] it was 23.4 µM (inactive); in assay [17], 24.1 µM (inactive); in assay [18], 17.1 µM (inactive). Also, the figures for the GI50 in assay [19] and in [20] were 13.6 µM (inactive) and 17.6 µM (inactive), respectively.

Turning to `CC1OC(OC2C(O[C@@H]3C[C@@H]4CC[C@@H]5[C@H](CC[C@]6(C)C7C(C[C@@H]56)O[C@]5(CC[C@@H](C)CO5)[C@H]7C)[C@@]4(C)C[C@H]3O)OC(CO)C(O)C2O)C(O)C(O)C1O` (stereo not given in full), the GI50 in assay [1] was 1.57 µM (inactive); in assay [2], 2.47 µM (inactive); in [3], 1.86 µM (inactive); in assay [4], 1.82 µM (inactive); in [5], 1.86 µM (inactive); in assay [6] it was 1.81 µM (inactive). Also, the GI50 was 1.64 µM (inactive) in assay [7]; 1.8 µM (inactive) in assay [8]; 1.78 µM (inactive) in [9]; 2.24 µM (inactive) in [10]; 1.82 µM (inactive) in assay [11]; 1.92 µM (inactive) in [12]. The GI50 in assay [13] was 1.89 µM (inactive); in assay [14], 2.23 µM (inactive); in assay [15], 1.78 µM (inactive); in assay [16], 1.8 µM (inactive); in [17], 1.83 µM (inactive); in [18], 1.74 µM (inactive). Further, the GI50 in [19] was 2.15 µM (inactive); in assay [20] it was 1.76 µM (inactive).

With `COC(=O)CNC(=O)CCC(C)[C@H]1CCC2C3C(C[C@H](OC(C)=O)[C@@]21C)[C@@]1(C)CCC2(C[C@H]1C[C@H]3OC(C)=O)OOC1(CCCCC1)OO2` (stereo not given in full), the GI50 in [1] is 2.6 µM (inactive); in [2], 1.74 µM (inactive); in assay [3], 6.31 µM (inactive); in assay [4] it was 2 µM (inactive); in assay [5], 3.55 µM (inactive); in [6], 2.73 µM (inactive). The GI50 in [7] was 1.95 µM (inactive); in assay [8], 2.07 µM (inactive); in assay [9], 2.24 µM (inactive); in [10], 2.23 µM (inactive); in [11], 2.04 µM (inactive); in assay [12], 2.18 µM (inactive). The GI50 is 3.14 µM (inactive) in [13]; 1.83 µM (inactive) in assay [14]; 1.84 µM (inactive) in assay [15]; 2.04 µM (inactive) in assay [16]; 6.08 µM (inactive) in [17]; 9.12 µM (inactive) in [18]. Also, the GI50 in [19] was 1.99 µM (inactive); in assay [20], 2.49 µM (inactive).
